The text below walks through data of patent publication US20030073850A1, “4-Imidazole derivatives of benzyl and restricted benzyl sulfonamides, sulfamides, ureas, carbamates, and amides and their use” (priority 1998, published 2003).

One may read the Ki as a dissociation constant, usually derived from enzyme kinetics or from competition with a known ligand. As a reminder, the melting point is the temperature, or range, at which the solid turns liquid.

The target in one data set is T1, α1A (rabbit urethra) (Oryctolagus cuniculus, UniProt O02824).
T1 construct: tested for α1A functional activity using rabbit urethra; from tissue; host or cells: rabbit urethra (female New Zealand white rabbits)
T1 sequence (O02824 1-466): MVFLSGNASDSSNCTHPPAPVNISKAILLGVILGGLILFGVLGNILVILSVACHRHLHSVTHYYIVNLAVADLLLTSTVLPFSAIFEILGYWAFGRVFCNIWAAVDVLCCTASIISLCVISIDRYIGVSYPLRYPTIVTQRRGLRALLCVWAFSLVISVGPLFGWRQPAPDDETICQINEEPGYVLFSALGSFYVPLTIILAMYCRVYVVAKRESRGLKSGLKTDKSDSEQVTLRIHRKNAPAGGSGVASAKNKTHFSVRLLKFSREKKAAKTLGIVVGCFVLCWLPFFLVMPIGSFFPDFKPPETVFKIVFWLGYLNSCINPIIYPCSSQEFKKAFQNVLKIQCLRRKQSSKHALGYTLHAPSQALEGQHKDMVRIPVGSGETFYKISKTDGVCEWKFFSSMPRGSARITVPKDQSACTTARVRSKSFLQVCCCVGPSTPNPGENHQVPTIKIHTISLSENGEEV
As to the kind of experiment: Agonist tissue response, contraction of rabbit urethra. As to conditions: values without asterisk, read-out: Agonist Tissue Response (pD2) α1A (rab ureth) (converted). The format is biochemical. As for the experimental part:
Most of the compounds were tested for α1A functional activity using rabbit urethra as follows. Female New Zealand white rabbits (2.0-3.5 Kg) were sedated with CO2 and decapitated. […] Subsequent experimental conditions were as described above for the other tissues. Agonist concentration response curves were cumulative except for the vas deferens assay in which the transient response made such measurements impractical.

Data set [1] has as its target T2, α1b (hamster receptor expressed in mouse fibroblasts) (Mesocricetus auratus, UniProt P18841).
T2 construct: expressed in transfected cells; host or cells: mouse fibroblasts
T2 sequence (P18841 1-515): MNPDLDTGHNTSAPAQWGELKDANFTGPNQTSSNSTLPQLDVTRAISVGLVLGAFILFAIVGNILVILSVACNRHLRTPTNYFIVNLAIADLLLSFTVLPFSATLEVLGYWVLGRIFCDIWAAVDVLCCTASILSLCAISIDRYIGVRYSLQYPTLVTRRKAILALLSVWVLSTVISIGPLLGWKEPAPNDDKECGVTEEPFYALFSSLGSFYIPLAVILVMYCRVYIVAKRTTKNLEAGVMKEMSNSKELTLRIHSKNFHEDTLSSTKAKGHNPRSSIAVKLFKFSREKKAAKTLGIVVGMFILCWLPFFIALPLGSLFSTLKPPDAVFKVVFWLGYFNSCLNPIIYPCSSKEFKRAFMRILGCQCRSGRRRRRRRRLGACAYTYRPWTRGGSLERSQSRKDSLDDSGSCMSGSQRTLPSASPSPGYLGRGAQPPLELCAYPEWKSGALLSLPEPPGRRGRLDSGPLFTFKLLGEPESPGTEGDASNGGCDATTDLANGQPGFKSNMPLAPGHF
As to the kind of experiment: Radioligand binding, [3H]-prazosin, α1b. The method in brief:
(§1)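 [3H]-prazosin radioligand displacement; α1A from rat submaxillary gland tissue, α1b hamster and α1d rat receptors each expressed in mouse fibroblasts.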

Data set [2] deals with T3, α1A (rat submaxillary gland) (Rattus norvegicus, UniProt P43140).
T3 construct: α1A (rat submaxillary gland); from tissue; host or cells: rat submaxillary gland
T3 sequence (P43140 1-466): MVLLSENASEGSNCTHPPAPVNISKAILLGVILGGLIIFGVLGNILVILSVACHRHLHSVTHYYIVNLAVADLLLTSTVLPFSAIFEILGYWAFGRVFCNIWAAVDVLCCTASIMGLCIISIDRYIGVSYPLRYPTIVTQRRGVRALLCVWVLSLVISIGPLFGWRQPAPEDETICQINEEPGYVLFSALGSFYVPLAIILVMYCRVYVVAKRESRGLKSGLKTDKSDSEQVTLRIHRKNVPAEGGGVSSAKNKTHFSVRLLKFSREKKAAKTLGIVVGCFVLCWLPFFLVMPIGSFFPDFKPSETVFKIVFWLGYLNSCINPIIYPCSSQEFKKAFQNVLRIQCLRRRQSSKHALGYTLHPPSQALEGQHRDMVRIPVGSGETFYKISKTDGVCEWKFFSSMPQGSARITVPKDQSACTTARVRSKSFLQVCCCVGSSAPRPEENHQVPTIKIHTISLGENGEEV
As to the kind of experiment: Radioligand binding, [3H]-prazosin, α1A. Summed up:
as §1

Data set [3] concerns the target T4, α1d (rat receptor expressed in mouse fibroblasts) (Rattus norvegicus, UniProt P23944).
T4 construct: expressed in transfected cells; host or cells: mouse fibroblasts
T4 sequence (P23944 1-561): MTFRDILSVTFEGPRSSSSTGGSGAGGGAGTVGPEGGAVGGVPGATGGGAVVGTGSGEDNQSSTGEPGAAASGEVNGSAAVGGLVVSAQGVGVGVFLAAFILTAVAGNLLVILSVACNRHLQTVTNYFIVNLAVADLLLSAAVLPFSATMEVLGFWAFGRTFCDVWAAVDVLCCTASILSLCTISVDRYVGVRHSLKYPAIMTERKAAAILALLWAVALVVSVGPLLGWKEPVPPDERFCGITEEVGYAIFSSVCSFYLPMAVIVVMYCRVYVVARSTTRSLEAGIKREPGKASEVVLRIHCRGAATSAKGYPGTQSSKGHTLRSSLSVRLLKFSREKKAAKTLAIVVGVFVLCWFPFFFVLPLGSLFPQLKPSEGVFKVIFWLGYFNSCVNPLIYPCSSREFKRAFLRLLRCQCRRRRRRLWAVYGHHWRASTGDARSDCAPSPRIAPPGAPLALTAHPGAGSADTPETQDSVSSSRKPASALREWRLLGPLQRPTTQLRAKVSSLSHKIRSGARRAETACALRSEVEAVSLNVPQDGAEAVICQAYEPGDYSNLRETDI
The experiment in a line: Radioligand binding, [3H]-prazosin, α1d. The method in brief:
as §1

The test system of data set [4] is anesthetized dogs. The experiment in a line: Intraurethral pressure (IUP) in anesthetized dogs. It is filed as in vivo, dog. As to conditions: for ED (5 mm Hg): Canis lupus familiaris, iv dose causing a maximum increase in IUP of 5 mm Hg, anesthetized female Beagle dogs, read-out: Mean IUP ED5; for Mean Selectivity Ratio MAP ED20/IUP ED5: anesthetized dogs, iv. From the text: (§2) Female Beagle dogs (Marshall Farms, North Rose, N.Y.) greater that 2 years of age and weighing between 12 and 15 kg were used in these studies. At least 2 weeks prior to any agonist dosing, dogs were instrumented for the chronic measurement of arterial blood pressure by implanting a telemetry transducer/transmitter (TA11PA-C40, Data Sciences International, St. Paul, Minn.) into a carotid artery.
(§3) On the test day, dogs fasted since the previous afternoon were pre-anesthetized with thiopental sodium 15 mg/kg i.v. (Pentothal™, Abbott) and intubated. Anesthesia was maintained by allowing the dog to spontaneously breathe a mixture of isoflurane (2.5 to 3 volume %) and oxygen delivered by a Narkomed Standard anesthesia system (North American Drager, Telford, Pa.). An Abbocath-T™ i.v. catheter (18-G, Abbott) was inserted into the cephalic vein for the administration of agonists. A telemetry receiver (RA1310, DataSciences) was placed under the head of each dog and was interfaced to a computerized data acquisition system (Modular Instruments Inc.(MI2), Malvern, Pa.) which allowed for the continuous calibrated recording of arterial blood pressure which was electronically filtered to determine its mean value (MAP).
Dogs with chronic telemetry implants anesthetized as described above were placed in dorsal recumbency and a balloon catheter was inserted into the urethral orifice and advanced approximately 15 cm until the tip was well inside the bladder. The balloon was then inflated with 1 ml of room air and the catheter slowly withdrawn until resistance (corresponding to the bladder neck) was evident. The balloon was then deflated and the catheter withdrawn additional 2 cm. The balloon was then reinflated and its catheter port connected to a Gould Statham P23Dd pressure transducer interfaced to a computerized data acquisition system (Modular Instruments, Inc., Malvern, Pa.) for the measurement of the intraurethral pressure. Increasing iv doses of test agonists were administered and the maximum effect of each dose on IUP was recorded. The effect of each dose was allowed to return to baseline before the next dose was given.
(§4) From the resulting dose response curve, an ED5 value, for the dose causing a maximum increase in IUP of 5 mm Hg, could be estimated. An ED20 value for the dose causing a maximum increase in MAP of 20 mm Hg could also be estimated. A selectivity ratio of MAP ED20 vs. IUP ED, was calculated.

Data set [5] deals with anesthetized dogs. The experiment in a line: Mean arterial pressure (MAP) in anesthetized dogs. The format is in vivo, dog. To be noted: iv dose causing a maximum increase in MAP of 20 mm Hg, anesthetized female Beagle dogs.
From the text: as §2, §3, §4

The mark [6] stands for this setting: hamster receptor expressed in mouse fibroblasts, [3H]-prazosin, read-out: Radioligand Binding Ki α1b (Hamster).
Setting [7] is: rat receptor expressed in mouse fibroblasts, [3H]-prazosin, read-out: Radioligand Binding Ki α1d (Rat).

Read-outs that look alike come from different tables or passages of the source.

With `CC(C)[C@H]1CC[C@H](C)C[C@@H]1OC(=O)Nc1cccc2c1CCCC2c1c[nH]cn1` (stereo partly drawn) [Example 123, (1S,2R,5S)-2-isopropyl-5-methylcyclohexyl 5-(1H-imidazol-4-yl)-5,6,7,8-tetrahydro-1-naphthalenylcarbamate], on α1A (rabbit urethra), the EC50 is 6.17 µM. Besides, the Ki worked out at 1.36 µM in data set [1] (setting [6]), 1.28 µM in data set [2] and 0.692 µM in data set [3] (setting [7]).

As to `O=C(Nc1cccc2c1CCCC2c1c[nH]cn1)N1CCOCC1` (centres unmarked) [Example 117, N-[5-(1H-imidazol-4-yl)-5,6,7,8-tetrahydro-1-naphthalenyl]-4-morpholinecarboxamide], in the data set on anesthetized dogs [4], the ED (5 mm Hg) turned out to be 0.873 µmol/kg. The “Mean Selectivity Ratio MAP ED20/IUP ED5” value in the data set on anesthetized dogs [4] came out at 0.75. Also, the EC50 at α1A (rabbit urethra) is 5.37 µM. In addition, the Ki in data set [1] was 10 µM; in data set [2] it was 1.1 µM; in data set [3], 10 µM. For the same molecule, the “Mean MAP ED20” value in the data set on anesthetized dogs [5] is on record as 645 nmol/kg.

On to `O=C(Nc1cccc2c1CCCC2c1c[nH]cn1)N1CCCCC1` (centres unmarked) [Example 114, N-[5-(1H-imidazol-4-yl)-5,6,7,8-tetrahydro-1-naphthalenyl]-1-piperidinecarboxamide], for which the ED (5 mm Hg) in the data set on anesthetized dogs [4] came out at 1.68 µmol/kg. The “Mean Selectivity Ratio MAP ED20/IUP ED5” value in the data set with anesthetized dogs [4] is 0.97. At α1A (rabbit urethra), the EC50 was 9.12 µM. Moreover, the results for the Ki in data set [1] (setting [6]), in data set [2] and in data set [3] (setting [7]) were 10 µM, 1.05 µM and 5.62 µM, respectively. Also, the “Mean MAP ED20” value with anesthetized dogs [5] came out at 1074.07 nmol/kg.

With `CCN(C(=O)Nc1cccc2c1CCCC2c1c[nH]cn1)C1CCCCC1` (centres unmarked) [Example 113, N-cyclohexyl-N-ethyl-N′-[5-(1H-imidazol-4-yl)-5,6,7,8-tetrahydro-1-naphthalenyl]urea], on α1A (rabbit urethra), the EC50 was 3.98 µM. Besides, the Ki was 10 µM in data set [1] (setting [6]), 0.536 µM in data set [2] and 2.11 µM in data set [3] (setting [7]). For the same molecule, the “Mean MAP ED20” value in the data set with anesthetized dogs [5] was 733.7 nmol/kg.

For the molecule `O=C(Nc1cccc2c1CCCC2c1c[nH]cn1)OCC(Cl)(Cl)Cl` (centres unmarked) [Example 121, 2,2,2-trichloroethyl 5-(1H-imidazol-4-yl)-5,6,7,8-tetrahydro-1-naphthalenylcarbamate], the EC50 on α1A (rabbit urethra) is 3.72 µM. For the same molecule, the Ki in data set [1] came out at 1.85 µM; in data set [2], 0.229 µM; in data set [3] it was 0.963 µM.

Consider `CS(=O)(=O)Nc1cc(F)cc2c1OCCC2c1c[nH]cn1.O=C(O)/C=C\C(=O)O` (centres unmarked) [Example 90, N-[6-fluoro-4-(1H-imidazol-4-yl)-3,4-dihydro-2H-chromen-8-yl]methanesulfonamide Maleate], for which the melting point was in the range of 187 to 190 °C. Moreover, the EC50 at α1A (rabbit urethra) is 0.49 µM. In addition, the Ki in data set [1] (setting [6]) is 10 µM. In data set [2], this molecule registered a Ki of 0.237 µM. In data set [3] (setting [7]), the Ki is 10 µM.

For the molecule `CCCN(CCC)C(=O)Nc1cccc2c1CCCC2c1c[nH]cn1` (centres unmarked) [Example 112, N′-[5-(1H-imidazol-4-yl)-5,6,7,8-tetrahydro-1-naphthalenyl]-N,N-dipropylurea], at α1A (rabbit urethra), the EC50 was 7.94 µM. The Ki stood at 10 µM in data set [1] (setting [6]), 1.24 µM in data set [2] and 10 µM in data set [3] (setting [7]).

With `O=S(=O)(Cc1ccccc1)Nc1cccc2c1CCCC2c1cnc[nH]1` (centres unmarked) [Example 67, N-[5-(1H-imidazol-5-yl)-5,6,7,8-tetrahydro-1-naphthalenyl](phenyl)methanesulfonamide], the EC50 at α1A (rabbit urethra) is 107 µM. For the same molecule, the Ki in data set [1] (setting [6]) amounted to 2.39 µM; in data set [2], 0.901 µM; in data set [3] (setting [7]) it was 3.74 µM.

With `C=C(c1cccc(NS(C)(=O)=O)c1)c1c[nH]cn1` [Example 92, N-{3-[1-(1H-imidazol-4-yl)vinyl]phenyl}methanesulfonamide], the ED (5 mm Hg) in the data set on anesthetized dogs [4] was determined as 0.397 µmol/kg. Further, the EC50 at α1A (rabbit urethra) was 3.24 µM. The Ki in data set [1] (setting [6]) is 10 µM; in data set [2], 0.689 µM; in data set [3] (setting [7]) it was 1.98 µM. In addition, the “Mean MAP ED20” value in the data set on anesthetized dogs [5] is 652.06 nmol/kg.

In the case of `CC1CC(C)CN(C(=O)Nc2cccc3c2CCCC3c2c[nH]cn2)C1` (centres unmarked) [Example 115, N-[5-(1H-imidazol-4-yl)-5,6,7,8-tetrahydro-1-naphthalenyl]-3,5-dimethyl-1-piperidinecarboxamide], in the data set on anesthetized dogs [4], the ED (5 mm Hg) was determined as 0.5 µmol/kg. Further, the “Mean Selectivity Ratio MAP ED20/IUP ED5” value in the data set on anesthetized dogs [4] was 1.05. Further, the EC50 on α1A (rabbit urethra) was 5.5 µM. Further, the Ki in data set [1] (setting [6]) amounted to 10 µM; in data set [2] it was 1.16 µM; in data set [3] (setting [7]) it was 10 µM. For the same molecule, in the data set with anesthetized dogs [5], the “Mean MAP ED20” value is 500 nmol/kg.
